Paper PMC5218480 (PLoS ONE, 2017)

Tested on: MV-4-11 cells
Assay: Gene expression microarray analysis (Affymetrix PrimeView) and GSEA
Format: cell-based, human
Set-up: RFU PODN (11730768_x_at) / Fold change /veh PODN (11730768_x_at) / RFU LINC00158 (11744669_a_at) / Fold change /veh LINC00158 (11744669_a_at) / RFU DUSP10 (11751237_a_at) / Fold change /veh DUSP10 (11751237_a_at) / RFU ID3 (11757404_x_at) / Fold change /veh ID3 (11757404_x_at) / RFU PLEKHG5 (11737974_s_at) / Fold change /veh PLEKHG5 (11737974_s_at) / RFU LRRC4B (11730491_at) / Fold change /veh LRRC4B (11730491_at) / RFU GIMAP4 (11747438_a_at) / Fold change /veh GIMAP4 (11747438_a_at) / RFU KRT8 (11758183_x_at) / Fold change /veh KRT8 (11758183_x_at) / RFU CNN1 (11734310_a_at) / Fold change /veh CNN1 (11734310_a_at) / RFU VPS37D (11726825_at) / Fold change /veh VPS37D (11726825_at) / RFU C10orf10 (11716522_x_at) / Fold change /veh C10orf10 (11716522_x_at) / RFU KIR2DL2 /// KIR2DL4 /// KIR2DL5A /// KIR2DL5B /// KIR2DS1 /// KIR2DS2 /// KIR2DS3 /// KIR2DS4 /// KIR3DL3 /// KIR3DL3 /// KIR3DS1 (11738374_at) / Fold change /veh KIR2DL2 /// KIR2DL4 /// KIR2DL5A /// KIR2DL5B /// KIR2DS1 /// KIR2DS2 /// KIR2DS3 /// KIR2DS4 /// KIR3DL3 /// KIR3DL3 /// KIR3DS1 (11738374_at) / RFU C1QL1 (11718748_at) / Fold change /veh C1QL1 (11718748_at) / RFU TMPRSS4 (11747572_a_at) / Fold change /veh TMPRSS4 (11747572_a_at) / RFU HAMP (11756126_x_at) / Fold change /veh HAMP (11756126_x_at) / RFU RNFT2 (11725882_a_at) / Fold change /veh RNFT2 (11725882_a_at) / RFU NR4A2 (11747474_a_at) / Fold change /veh NR4A2 (11747474_a_at) / RFU ABCC12 (11746883_a_at) / Fold change /veh ABCC12 (11746883_a_at) / RFU TMEM136 (11760407_x_at) / Fold change /veh TMEM136 (11760407_x_at) / RFU CLDN22 /// WWC2 (11732394_at) / Fold change /veh CLDN22 /// WWC2 (11732394_at) / RFU HLA-DPB1 (11760878_x_at) / Fold change /veh HLA-DPB1 (11760878_x_at) / RFU SPINT1 (11716480_a_at) / Fold change /veh SPINT1 (11716480_a_at) / RFU GAP43 (11754022_s_at) / Fold change /veh GAP43 (11754022_s_at) / RFU A4GNT (11735810_at) / Fold change /veh A4GNT (11735810_at) / RFU PRB3 (11715151_x_at) / Fold change /veh PRB3 (11715151_x_at) / RFU TUBB4B (11761932_at) / Fold change /veh TUBB4B (11761932_at) / RFU CAPN14 (11732068_a_at) / Fold change /veh CAPN14 (11732068_a_at) / RFU TMCC2 (11721928_a_at) / Fold change /veh TMCC2 (11721928_a_at) / RFU IRGQ (11745062_a_at) / Fold change /veh IRGQ (11745062_a_at) / RFU FAM174B (11720279_a_at) / Fold change /veh FAM174B (11720279_a_at) / RFU TMPRSS4 (11748680_a_at) / Fold change /veh TMPRSS4 (11748680_a_at) / RFU FAM212B (11763350_a_at) / Fold change /veh FAM212B (11763350_a_at) / RFU PLEKHG5 (11743358_a_at) / Fold change /veh PLEKHG5 (11743358_a_at) / RFU ZSCAN30 (11745921_a_at) / Fold change /veh ZSCAN30 (11745921_a_at) / RFU CMKLR1 (11741424_a_at) / Fold change /veh CMKLR1 (11741424_a_at) / RFU LOC101060620 /// MAPK8IP1 (11723275_at) / Fold change /veh LOC101060620 /// MAPK8IP1 (11723275_at) / RFU SPTSSB (11747773_x_at) / Fold change /veh SPTSSB (11747773_x_at) / RFU PRSS12 (11739890_at) / Fold change /veh PRSS12 (11739890_at) / RFU BIN1 (11741810_x_at) / Fold change /veh BIN1 (11741810_x_at) / RFU WNT11 (11732464_a_at) / Fold change /veh WNT11 (11732464_a_at) / RFU C10orf10 (11716521_a_at) / Fold change /veh C10orf10 (11716521_a_at) / RFU C5orf56 (11738089_at) / Fold change /veh C5orf56 (11738089_at) / RFU CYB561 (11721691_x_at) / Fold change /veh CYB561 (11721691_x_at) / RFU ANKRD19P (11752326_a_at) / Fold change /veh ANKRD19P (11752326_a_at) / RFU OR2T12 /// OR2T33 /// OR2T8 (11738714_s_at) / Fold change /veh OR2T12 /// OR2T33 /// OR2T8 (11738714_s_at) / RFU VCAN (11748164_a_at) / Fold change /veh VCAN (11748164_a_at) / RFU JSRP1 (11732532_at) / Fold change /veh JSRP1 (11732532_at) / RFU KRTAP10-11 (11738290_x_at) / Fold change /veh KRTAP10-11 (11738290_x_at) / RFU MYO3A (11730013_a_at) / Fold change /veh MYO3A (11730013_a_at) / RFU EBF3 (11725865_a_at) / Fold change /veh EBF3 (11725865_a_at) / RFU CAMK2N1 (11719241_x_at) / Fold change /veh CAMK2N1 (11719241_x_at) / RFU C5orf56 (11738088_a_at) / Fold change /veh C5orf56 (11738088_a_at) / RFU OLFML3 (11715873_a_at) / Fold change /veh OLFML3 (11715873_a_at) / RFU LOC100653217 /// NTM (11731650_a_at) / Fold change /veh LOC100653217 /// NTM (11731650_a_at) / RFU MAPK11 (11762145_a_at) / Fold change /veh MAPK11 (11762145_a_at) / RFU FIZ1 (11724087_x_at) / Fold change /veh FIZ1 (11724087_x_at) / RFU OASL (11726364_x_at) / Fold change /veh OASL (11726364_x_at) / RFU SOX15 (11748057_x_at) / Fold change /veh SOX15 (11748057_x_at) / RFU CD79A (11719716_a_at) / Fold change /veh CD79A (11719716_a_at) / RFU HIST1H1D (11736915_at) / Fold change /veh HIST1H1D (11736915_at) / RFU CASKIN2 (11723855_a_at) / Fold change /veh CASKIN2 (11723855_a_at) / RFU LOC730098 (11760151_x_at) / Fold change /veh LOC730098 (11760151_x_at) / RFU OR4N2 (11742367_at) / Fold change /veh OR4N2 (11742367_at) / RFU PRRT2 (11749266_a_at) / Fold change /veh PRRT2 (11749266_a_at) / RFU SNX32 (11753110_a_at) / Fold change /veh SNX32 (11753110_a_at) / RFU CDHR5 (11726645_a_at) / Fold change /veh CDHR5 (11726645_a_at) / RFU RCAN1 (11760418_a_at) / Fold change /veh RCAN1 (11760418_a_at) / RFU FAM167A (11723789_a_at) / Fold change /veh FAM167A (11723789_a_at) / RFU FAM26E (11764081_at) / Fold change /veh FAM26E (11764081_at) / RFU ISYNA1 (11749810_s_at) / Fold change /veh ISYNA1 (11749810_s_at) / RFU ACY1 (11761880_at) / Fold change /veh ACY1 (11761880_at) / RFU 11764098_at / Fold change /veh 11764098_at / RFU SAMD14 (11745864_x_at) / Fold change /veh SAMD14 (11745864_x_at) / RFU NPB (11741838_a_at) / Fold change /veh NPB (11741838_a_at) / RFU TMPRSS6 (11731388_a_at) / Fold change /veh TMPRSS6 (11731388_a_at) / RFU KRTAP10-2 (11738614_at) / Fold change /veh KRTAP10-2 (11738614_at) / RFU ARHGAP8 /// PRR5-ARHGAP8 (11727945_x_at) / Fold change /veh ARHGAP8 /// PRR5-ARHGAP8 (11727945_x_at) / RFU KRTAP5-7 /// NADSYN1 (11734609_at) / Fold change /veh KRTAP5-7 /// NADSYN1 (11734609_at) / RFU RASL12 (11751679_a_at) / Fold change /veh RASL12 (11751679_a_at) / RFU CDKN2B (11736163_a_at) / Fold change /veh CDKN2B (11736163_a_at) / RFU PRF1 (11729649_at) / Fold change /veh PRF1 (11729649_at) / RFU, ZNF638 /// ZNF638-IT1 / Fold change vs veh, ZNF638 /// ZNF638-IT1 / RFU, PANK3 / Fold change vs veh, PANK3 / RFU, SH3YL1 / Fold change vs veh, SH3YL1 / RFU, ZEB2 / Fold change vs veh, ZEB2 / RFU, NRIP1 / Fold change vs veh, NRIP1 / RFU, PTTG1IP / Fold change vs veh, PTTG1IP / RFU, CAPN2 / Fold change vs veh, CAPN2 / RFU, MED14 / Fold change vs veh, MED14 / RFU, SNORA58 / Fold change vs veh, SNORA58 / RFU, C1orf63 / Fold change vs veh, C1orf63 / RFU, LRRFIP1 / Fold change vs veh, LRRFIP1 / RFU, NDUFAF7 / Fold change vs veh, NDUFAF7 / RFU, SLC12A2 / Fold change vs veh, SLC12A2 / RFU, IBTK / Fold change vs veh, IBTK / RFU, ESF1 / Fold change vs veh, ESF1 / Fold change vs veh, TMEM50B / RFU, TAOK1 / Fold change vs veh, TAOK1 / RFU, ACBD3 / Fold change vs veh, ACBD3 / RFU, TMA16 / Fold change vs veh, TMA16 / RFU, RWDD3 / Fold change vs veh, RWDD3 / RFU, BCAT1 / Fold change vs veh, BCAT1 / RFU, EDEM3 / Fold change vs veh, EDEM3 / RFU, TMEM33 / Fold change vs veh, TMEM33 / RFU, WDR75 / Fold change vs veh, WDR75 / RFU, AHCTF1 / Fold change vs veh, AHCTF1 / RFU, TFRC / Fold change vs veh, TFRC / RFU, ZDHHC17 / Fold change vs veh, ZDHHC17 / RFU, NOM1 / Fold change vs veh, NOM1 / RFU, ARL8B / Fold change vs veh, ARL8B / RFU, ZBTB11 / Fold change vs veh, ZBTB11 / RFU, TAMM41 / Fold change vs veh, TAMM41 / RFU, KIAA1704 /// LOC100996395 / Fold change vs veh, KIAA1704 /// LOC100996395 / RFU, ING1 / Fold change vs veh, ING1 / RFU, TRMT61B / Fold change vs veh, TRMT61B / RFU, FUBP3 / Fold change vs veh, FUBP3 / RFU, TP53 / Fold change vs veh, TP53 / RFU, TNKS2 / Fold change vs veh, TNKS2 / RFU, ZFP14 / Fold change vs veh, ZFP14 / RFU, ACTR2 / Fold change vs veh, ACTR2 / RFU, PPP3R1 / Fold change vs veh, PPP3R1 / RFU, PIK3R1 / Fold change vs veh, PIK3R1 / RFU, HNRNPA1 / Fold change vs veh, HNRNPA1 / RFU, RNF170 / Fold change vs veh, RNF170 / RFU, ZNF28 / Fold change vs veh, ZNF28 / RFU, RNGTT / Fold change vs veh, RNGTT / RFU, OGT / Fold change vs veh, OGT / RFU, BRD1 / Fold change vs veh, BRD1 / RFU, MARS / Fold change vs veh, MARS / RFU, ZNF655 / Fold change vs veh, ZNF655 / RFU, FAHD1 / Fold change vs veh, FAHD1 / RFU, BDP1 / Fold change vs veh, BDP1 / RFU, LRRCC1 / Fold change vs veh, LRRCC1 / RFU, ARID1A / Fold change vs veh, ARID1A / RFU, ZNF146 / Fold change vs veh, ZNF146 / RFU, ZNF330 / Fold change vs veh, ZNF330 / RFU, GPN3 / Fold change vs veh, GPN3 / RFU, C9orf123 / Fold change vs veh, C9orf123 / RFU, N4BP2L2 / Fold change vs veh, N4BP2L2 / RFU, ARFIP1 / Fold change vs veh, ARFIP1 / RFU, FAM179B / Fold change vs veh, FAM179B / RFU, BCL10 / Fold change vs veh, BCL10 / RFU, UHRF1BP1L / Fold change vs veh, UHRF1BP1L / RFU, BET1 / Fold change vs veh, BET1 / RFU, CNOT2 / Fold change vs veh, CNOT2 / RFU, ZNF268 / Fold change vs veh, ZNF268 / Fold change vs veh, ZNF507 / RFU, DGCR2 / Fold change vs veh, DGCR2 / RFU, WDSUB1 / Fold change vs veh, WDSUB1 / Fold change vs veh, HSP90B1 /// MIR3652 / RFU, ADSS / Fold change vs veh, ADSS / RFU, GK / Fold change vs veh, GK / RFU, ZNF148 / Fold change vs veh, ZNF148 / RFU, TAF9 / Fold change vs veh, TAF9 / RFU, SLC1A5 / Fold change vs veh, SLC1A5 / RFU, SLMO2 / Fold change vs veh, SLMO2 / RFU, ABCC4 / Fold change vs veh, ABCC4 / RFU, LOC101060439 /// RAP1B / Fold change vs veh, LOC101060439 /// RAP1B / RFU, RFX7 / Fold change vs veh, RFX7 / RFU, GTPBP10 / Fold change vs veh, GTPBP10 / RFU, CNEP1R1 / Fold change vs veh, CNEP1R1 / RFU, BIVM-ERCC5 /// ERCC5 / Fold change vs veh, BIVM-ERCC5 /// ERCC5 / RFU, ILF3 / Fold change vs veh, ILF3 / RFU 11762660_at / Fold change /veh 11762660_at / RFU VCAN (11757783_s_at) / Fold change /veh VCAN (11757783_s_at) / RFU DDX43 (11728927_at) / Fold change /veh DDX43 (11728927_at) / RFU KRT8 (11758188_x_at) / Fold change /veh KRT8 (11758188_x_at) / RFU NKD1 (11759106_at) / Fold change /veh NKD1 (11759106_at) / RFU SRD5A1 (11742802_a_at) / Fold change /veh SRD5A1 (11742802_a_at) / RFU TPSAB1 /// TPSB2 (11721975_s_at) / Fold change /veh TPSAB1 /// TPSB2 (11721975_s_at) / RFU GSTM3 (11746129_a_at) / Fold change /veh GSTM3 (11746129_a_at) / RFU IL23R (11737362_x_at) / Fold change /veh IL23R (11737362_x_at) / RFU TMEM51 (11727254_a_at) / Fold change /veh TMEM51 (11727254_a_at) / RFU PIWIL2 (11732686_x_at) / Fold change /veh PIWIL2 (11732686_x_at) / RFU ORM1 (11744905_x_at) / Fold change /veh ORM1 (11744905_x_at) / RFU CCDC152 (11743942_at) / Fold change /veh CCDC152 (11743942_at) / RFU ECM1 (11717891_a_at) / Fold change /veh ECM1 (11717891_a_at) / RFU IL23R (11748794_a_at) / Fold change /veh IL23R (11748794_a_at) / RFU TNFAIP8L3 (11732012_x_at) / Fold change /veh TNFAIP8L3 (11732012_x_at) / RFU MBOAT4 (11741988_at) / Fold change /veh MBOAT4 (11741988_at) / RFU 11764193_at / Fold change /veh 11764193_at / RFU TMEM53 (11763286_at) / Fold change /veh TMEM53 (11763286_at) / RFU MAGEB2 (11727129_at) / Fold change /veh MAGEB2 (11727129_at) / RFU TMEM200A (11744735_a_at) / Fold change /veh TMEM200A (11744735_a_at) / RFU CCDC152 (11751479_a_at) / Fold change /veh CCDC152 (11751479_a_at) / RFU FAM211A (11726209_a_at) / Fold change /veh FAM211A (11726209_a_at) / RFU RGS16 (11746705_a_at) / Fold change /veh RGS16 (11746705_a_at) / RFU VCAN (11755009_s_at) / Fold change /veh VCAN (11755009_s_at) / RFU RHOB (11743442_s_at) / Fold change /veh RHOB (11743442_s_at) / RFU RGS16 (11720943_a_at) / Fold change /veh RGS16 (11720943_a_at) / RFU RGS16 (11720944_at) / Fold change /veh RGS16 (11720944_at) / RFU, VPS4B / Fold change vs veh, VPS4B / RFU, CREB1 / Fold change vs veh, CREB1 / RFU, DNAJC13 / Fold change vs veh, DNAJC13 / RFU, GNAQ / Fold change vs veh, GNAQ / RFU, CDK5R1 / Fold change vs veh, CDK5R1 / RFU, ZRANB3 / Fold change vs veh, ZRANB3 / RFU, CUL4A / Fold change vs veh, CUL4A / RFU, CCNY / Fold change vs veh, CCNY / RFU, UFL1 / Fold change vs veh, UFL1 / RFU, COG3 / Fold change vs veh, COG3 / RFU, DIAPH2 / Fold change vs veh, DIAPH2 / RFU, SKA2 / Fold change vs veh, SKA2 / RFU, AFF3 / Fold change vs veh, AFF3 / RFU, LMF1 / Fold change vs veh, LMF1 / RFU, IPO11 / Fold change vs veh, IPO11 / RFU, DFFB / Fold change vs veh, DFFB / RFU, FOXP1 / Fold change vs veh, FOXP1 / RFU, CARD8 / Fold change vs veh, CARD8 / RFU, STRN3 / Fold change vs veh, STRN3 / RFU, ADK / Fold change vs veh, ADK / RFU, RASSF2 / Fold change vs veh, RASSF2 / RFU, WIPF1 / Fold change vs veh, WIPF1 / RFU, LARP1B / Fold change vs veh, LARP1B / RFU, RASA1 / Fold change vs veh, RASA1 / RFU, RB1 / Fold change vs veh, RB1 / RFU, PPFIA1 / Fold change vs veh, PPFIA1 / RFU, MAT2A / Fold change vs veh, MAT2A / RFU, CCT5 / Fold change vs veh, CCT5 / RFU, WDR92 / Fold change vs veh, WDR92 / RFU, CUX1 / Fold change vs veh, CUX1 / RFU, TTC7A / Fold change vs veh, TTC7A / RFU, TMEM135 / Fold change vs veh, TMEM135 / RFU, DEPTOR / Fold change vs veh, DEPTOR / RFU, CPM / Fold change vs veh, CPM / RFU, DNAJB6 / Fold change vs veh, DNAJB6 / RFU, CACNA2D3 / Fold change vs veh, CACNA2D3 / RFU, DTX4 / Fold change vs veh, DTX4 / RFU, TFCP2 / Fold change vs veh, TFCP2 / RFU, GMCL1 /// GMCL1P1 / Fold change vs veh, GMCL1 /// GMCL1P1 / RFU, AEBP2 / Fold change vs veh, AEBP2 / RFU, SNHG1 /// SNORD22 /// SNORD25 /// SNORD26 /// SNORD27 /// SNORD28 /// SNORD29 /// SNORD31 / Fold change vs veh, SNHG1 /// SNORD22 /// SNORD25 /// SNORD26 /// SNORD27 /// SNORD28 /// SNORD29 /// SNORD31 / Fold change (Aza/veh), C12orf56 (ProbeSet 11735607_a_at) / Fold change (ACY-1035/veh), C12orf56 (ProbeSet 11735607_a_at) / Fold change (Aza/veh), FGFR1OP (ProbeSet 11751329_s_at) / Fold change (ACY-1035/veh), FGFR1OP (ProbeSet 11751329_s_at) / Fold change (Aza/veh), VPS36 (ProbeSet 11739960_a_at) / Fold change (ACY-1035/veh), VPS36 (ProbeSet 11739960_a_at) / RFU SYPL1 (11715823_x_at) / Fold change /veh SYPL1 (11715823_x_at) / RFU IGFBP7 (11715501_s_at) / Fold change /veh IGFBP7 (11715501_s_at) / RFU REEP3 (11722064_at) / Fold change /veh REEP3 (11722064_at) / RFU IGLL1 (11728026_x_at) / Fold change /veh IGLL1 (11728026_x_at): dose or concentration left out as unconfirmed
Conditions: ProbeSet 11758170_s_at; LIST D

Nc1ncn([C@@H]2O[C@H](CO)[C@@H](O)[C@H]2O)c(=O)n1 [azacitidine]
RFU, DIAPH2: 23.40 RFU
